Measured values published in publication PMC8808171, “Nonselective TRPC channel inhibition and suppression of aminoglycoside-induced premature termination codon readthrough by the small molecule AC1903” (The Journal of Biological Chemistry, 2022).
Entries after “also recorded” stand apart in the source; their conditions may differ.

Molecular target: T1, TRPV1:V1 (Rattus norvegicus, UniProt O35433)
T1 construct: expressed in transfected cells; host or cells: WT HEK 293 (transient)
Assay: [Ca2+]i recordings (Fura-2), TRPV1:V1 in HEK 293 cells
Assay type: cell-based
Method: Based on the findings described above, we wondered whether AC1903—which is typically used as a TRPC5 inhibitor at concentrations of 30–100 μM in cellular assays ([29], [56])—might have limited selectivity for TRPC5 channels and whether its effect on intracellular G418 levels and PTC readthrough might be the consequence of inhibition of other or multiple targets. All well-characterized TRPC channel inhibitors reported to date modulate multiple TRP(C) channels ([34], [35], [36]). […] Because limited data for the selectivity of AC1903 are available in the public domain, we decided to profile AC1903 against a selection of calcium-permeable cation channels by intracellular calcium ([Ca^2+]i) recordings using well-characterized cell lines and TRP channel activators ([46], [57], [58]), and the Ca^2+ indicator Fura-2. In these assays, cells (HEK 293, HEK T-REx, or CHO) overexpressing the relevant ion channel protein and loaded with Fura-2 AM (a cell-permeable precursor of Fura-2) were preincubated with various concentrations of AC1903 or vehicle (DMSO) for 30 min. Then, changes in ratiometric fluorescence (from background) were recorded upon addition of the respective ion channel activator.
HEK T-REx cells expressing tetracycline-inducible TRPC4, TRPC5, TRPC5–C1,TRPC4–C1, and hPiezo1 have been described previously ([46], [57], [59], [78]). Cloning of TRPC3 has been described previously ([79]). To create cells stably expressing tetracycline-inducible TRPC3, HEK T-REx cells were transfected with pcDNA4/TO/hTRPC3 using jetPRIME transfection reagent (VWR) according to manufacturer’s instructions. After 48 h cells were put under antibiotic selection using 400 μg/ml zeocin and 10 μg/ml Blasticidin S (Invivogen)). Medium changes were carried out every 2 to 3 days to remove dead cells. […]

T1 sequence (O35433 whole entry): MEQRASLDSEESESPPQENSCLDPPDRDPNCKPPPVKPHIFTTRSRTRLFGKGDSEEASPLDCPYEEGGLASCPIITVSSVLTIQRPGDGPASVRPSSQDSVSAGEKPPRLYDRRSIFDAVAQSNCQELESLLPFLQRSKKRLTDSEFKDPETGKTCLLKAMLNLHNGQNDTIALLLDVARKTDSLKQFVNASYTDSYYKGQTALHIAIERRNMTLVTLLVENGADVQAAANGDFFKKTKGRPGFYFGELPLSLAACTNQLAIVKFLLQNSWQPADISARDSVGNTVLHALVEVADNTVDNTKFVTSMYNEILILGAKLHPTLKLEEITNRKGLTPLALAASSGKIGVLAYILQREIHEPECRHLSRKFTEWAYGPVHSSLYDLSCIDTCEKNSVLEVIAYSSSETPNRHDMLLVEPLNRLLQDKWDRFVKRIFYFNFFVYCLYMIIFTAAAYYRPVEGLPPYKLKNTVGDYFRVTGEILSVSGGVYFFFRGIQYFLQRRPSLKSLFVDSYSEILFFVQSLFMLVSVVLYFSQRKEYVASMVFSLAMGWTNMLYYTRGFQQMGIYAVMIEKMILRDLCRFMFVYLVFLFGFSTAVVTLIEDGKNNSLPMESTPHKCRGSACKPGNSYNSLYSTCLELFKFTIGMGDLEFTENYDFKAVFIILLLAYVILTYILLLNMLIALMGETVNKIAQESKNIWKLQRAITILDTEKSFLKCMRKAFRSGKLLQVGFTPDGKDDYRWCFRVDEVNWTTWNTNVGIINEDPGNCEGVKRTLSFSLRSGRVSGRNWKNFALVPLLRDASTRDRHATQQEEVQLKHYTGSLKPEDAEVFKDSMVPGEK

effect on capsaicin-activated TRPV1 (AC1903 100 μM): small effects
IC50 (HEK 293, activator capsaicin (500 nM)): > 50 µM
Compound: c1ccc(Cn2c(NCc3ccco3)nc3ccccc32)cc1 [AC1903]
inhibition of capsaicin-activated TRPV1 (AC1903 up to 30 μM): does not affect; also recorded: did not inhibit
